Test results from US20090054392A1, “NAPHTHYLPYRIMIDINE, NAPHTHYLPYRAZINE AND NAPHTHYLPYRIDAZINE ANALOGS AND THEIR USE AS AGONISTS OF THE WNT-BETA-CATENIN CELLULAR MESSAGING SYSTEM” (Wyeth, priority 2007, published 2009).

System: Dkk1-LRP5-TCF-Luciferase
Assay: Functional Dkk1-LRP5-TCF-Luciferase Assay in U2OS Cells
Conditions: for fold induction at 2 µM / fold induction at 20 µM / EC50: Homo sapiens, U2OS; for fold induction at 2 µM: read-out: B = TCF ACTIVITY/DMSO CONTROL Fold induction @ 2.0 uM, 2.0 uM compound; for fold induction at 20 µM: read-out: C = TCF ACTIVITY/DMSO CONTROL Fold induction @ 20.0 uM, 20.0 uM compound; for A = MAX FOLD Induction/DMSO CONTROL: maximum fold induction over DMSO control

Structure (SMILES)	fold induction at 2 µM	fold induction at 20 µM	A = MAX FOLD Induction/DMSO CONTROL [fold]	EC50 [µM]
O=C(NC1CCCN(c2nccc(-c3ccc4ccccc4c3)n2)CC1)c1ccccc1 (centres unmarked) [N-{1-[4-(2-naphthyl)pyrimidin-2-yl]azepan-4-yl}benzamide]	1.23	1.07		
CS(=O)(=O)NC1CCCN(c2nccc(-c3ccc4ccccc4c3)n2)CC1 (centres unmarked) [N-{1-[4-(2-naphthyl)pyrimidin-2-yl]azepan-4-yl}methanesulfonamide]	2.04	2.21	1.120	
NC(=O)NC1CCCN(c2nccc(-c3ccc4ccccc4c3)n2)CC1 (centres unmarked) [N-{1-[4-(2-naphthyl)pyrimidin-2-yl]azepan-4-yl}urea]	1.62	2.89	1.500	20.4
CC(=O)N[C@@H]1CCN(c2nccc(-c3ccc4ccccc4c3)n2)C1 [N-{(3R)-1-[4-(2-naphthyl)pyrimidin-2-yl]pyrrolidin-3-yl}acetamide]	1.62	0.2	1.610	
N=C(N)N[C@@H]1CCN(c2nccc(-c3ccc4ccccc4c3)n2)C1 [N-{(3R)-1-[4-(2-naphthyl)pyrimidin-2-yl]pyrrolidin-3-yl}guanidine]	1.63	0.65		
CS(=O)(=O)N[C@@H]1CCN(c2nccc(-c3ccc4ccccc4c3)n2)C1 [N-{(3R)-1-[4-(2-naphthyl)pyrimidin-2-yl]pyrrolidin-3-yl}methanesulfonamide]	1.26	0.82		
O=C(N[C@@H]1CCN(c2nccc(-c3ccc4ccccc4c3)n2)C1)N1CCOCC1 [N-{(3R)-1-[4-(2-naphthyl)pyrimidin-2-yl]pyrrolidin-3-yl}morpholine-4-carboxamide]	1.91			
O=C(N[C@@H]1CCN(c2nccc(-c3ccc4ccccc4c3)n2)C1)N1CCCC1 [N-{(3R)-1-[4-(2-naphthyl)pyrimidin-2-yl]pyrrolidin-3-yl}pyrrolidine-1-carboxamide]	1.41	0.27		
NC(=O)N[C@@H]1CCN(c2nccc(-c3ccc4ccccc4c3)n2)C1 [N-{(3R)-1-[4-(2-naphthyl)pyrimidin-2-yl]pyrrolidin-3-yl}urea]	2.09	1.63	1.550	4.3
Cc1ccc(S(=O)(=O)N2CC[C@@H](Nc3nccc(-c4ccc5ccccc5c4)n3)C2)cc1 [N-{(3R)-1-[(4-methylphenyl)sulfonyl]pyrrolidin-3-yl}-4-(2-naphthyl)pyrimidin-2-amine]		1.58		
CC(=O)N(CC(F)(F)F)[C@H]1CCN(c2nccc(-c3ccc4ccccc4c3)n2)C1 [N-{(3S)-1-[4-(2-naphthyl)pyrimidin-2-yl]pyrrolidin-3-yl}-N-(2,2,2-trifluoroethyl)acetamide]	1.23			
CC(=O)N[C@H]1CCN(c2nccc(-c3ccc4ccccc4c3)n2)C1 [N-{(3S)-1-[4-(2-naphthyl)pyrimidin-2-yl]pyrrolidin-3-yl}acetamide]	1.02	1.5	4.375	6.88
O=C(N[C@H]1CCN(c2nccc(-c3ccc4ccccc4c3)n2)C1)c1ccccc1 [N-{(3S)-1-[4-(2-naphthyl)pyrimidin-2-yl]pyrrolidin-3-yl}benzamide]	1.13	0.64		
CS(=O)(=O)N[C@H]1CCN(c2nccc(-c3ccc4ccccc4c3)n2)C1 [N-{(3S)-1-[4-(2-naphthyl)pyrimidin-2-yl]pyrrolidin-3-yl}methanesulfonamide]	0.68	1.56	1.420	13.8
O=C(N[C@H]1CCN(c2nccc(-c3ccc4ccccc4c3)n2)C1)N1CCOCC1 [N-{(3S)-1-[4-(2-naphthyl)pyrimidin-2-yl]pyrrolidin-3-yl}morpholine-4-carboxamide]	0.93	1.72		
O=C(N[C@H]1CCN(c2nccc(-c3ccc4ccccc4c3)n2)C1)N1CCCC1 [N-{(3S)-1-[4-(2-naphthyl)pyrimidin-2-yl]pyrrolidin-3-yl}pyrrolidine-1-carboxamide]	1.89			
NC(=O)N[C@H]1CCN(c2nccc(-c3ccc4ccccc4c3)n2)C1 [N-{(3S)-1-[4-(2-naphthyl)pyrimidin-2-yl]pyrrolidin-3-yl}urea]		1.47		
Cc1ccc(S(=O)(=O)N2CC[C@H](Nc3nccc(-c4ccc5ccccc5c4)n3)C2)cc1 [N-{(3S)-1-[(4-methylphenyl)sulfonyl]pyrrolidin-3-yl}-4-(2-naphthyl)pyrimidin-2-amine]	1.22	1.01		
CS(=O)(=O)N1CC(CNc2nccc(-c3ccc4ccccc4c3)n2)C1 [N-{[1-(methylsulfonyl)azetidin-3-yl]methyl}-4-(2-naphthyl)pyrimidin-2-amine]		1.52		

Structure (SMILES)	fold induction at 2 µM	fold induction at 20 µM	A = MAX FOLD Induction/DMSO CONTROL [fold]	EC50 [µM]
CS(=O)(=O)N1CCC(CNc2nccc(-c3ccc4ccccc4c3)n2)CC1 [N-{[1-(methylsulfonyl)piperidin-4-yl]methyl}-4-(2-naphthyl)pyrimidin-2-amine]	1.54	1.35		
O=C(NCCC1CCN(c2nccc(-c3ccc4ccccc4c3)n2)CC1)OCc1ccccc1 [benzyl (2-{1-[4-(2-naphthyl)pyrimidin-2-yl]piperidin-4-yl}ethyl)carbamate]	0.86	1.49		
CC(C)(C)OC(=O)/N=C(/NCC1CCN(c2nccc(-c3ccc4ccccc4c3)n2)CC1)NC(=O)OC(C)(C)C [di-tert-butyl {(Z)-[({1-[4-(2-naphthyl)pyrimidin-2-yl]piperidin-4-yl}methyl)amino]methylylidene}biscarbamate]	0.94	1.35		
CCOC(=O)N(CCN1CCN(c2nccc(-c3ccc4ccccc4c3)n2)CC1)C(=O)OCC [diethyl (2-{4-[4-(2-naphthyl)pyrimidin-2-yl]piperazin-1-yl}ethyl)imidodicarbonate]	1.72			
CCOC(=O)C1CCN(c2nccc(-c3ccc4ccccc4c3)n2)CC1 [ethyl 1-[4-(2-naphthyl)pyrimidin-2-yl]piperidine-4-carboxylate]	1.64	1.91	1.950	
CCOC(=O)N1CCCN(c2nccc(-c3ccc4ccccc4c3)n2)CC1 [ethyl 4-[4-(2-naphthyl)pyrimidin-2-yl]-1,4-diazepane-1-carboxylate]		2.49	1.790	30
CCOC(=O)N1CC[C@@H](Nc2nccc(-c3ccc4ccccc4c3)n2)C1 [ethyl (3R)-3-{[4-(2-naphthyl)pyrimidin-2-yl]amino}pyrrolidine-1-carboxylate]		1.3		
CCOC(=O)N1CC[C@H](Nc2nccc(-c3ccc4ccccc4c3)n2)C1 [ethyl (3S)-3-{[4-(2-naphthyl)pyrimidin-2-yl]amino}pyrrolidine-1-carboxylate]	1.28	1.54		
CCOC(=O)CC1CCN(c2nccc(-c3ccc4ccccc4c3)n2)CC1 [ethyl {1-[4-(2-naphthyl)pyrimidin-2-yl]piperidin-4-yl}acetate]	1.26	1.06		
CCOC(=O)N[C@@H]1CCN(c2nccc(-c3ccc4ccccc4c3)n2)C1 [ethyl {(3R)-1-[4-(2-naphthyl)pyrimidin-2-yl]pyrrolidin-3-yl}carbamate]	1.21	0.69		
CCOC(=O)N[C@H]1CCN(c2nccc(-c3ccc4ccccc4c3)n2)C1 [ethyl {(3S)-1-[4-(2-naphthyl)pyrimidin-2-yl]pyrrolidin-3-yl}carbamate]	1.02	1.94		
COC(=O)C1CCN(c2nccc(-c3ccc4ccccc4c3)n2)CC1 [methyl 1-[4-(2-naphthyl)pyrimidin-2-yl]piperidine-4-carboxylate]		1.39		
COC(=O)N1CCCN(c2nccc(-c3ccc4ccccc4c3)n2)CC1 [methyl 4-[4-(2-naphthyl)pyrimidin-2-yl]-1,4-diazepane-1-carboxylate]		1.88	1.930	30
COC(=O)N1CCC(N(C)c2nccc(-c3ccc4ccccc4c3)n2)CC1 [methyl 4-{methyl[4-(2-naphthyl)pyrimidin-2-yl]amino}piperidine-1-carboxylate]	1.43	1.47		
COC(=O)NCCC1CCN(c2nccc(-c3ccc4ccccc4c3)n2)CC1 [methyl (2-{1-[4-(2-naphthyl)pyrimidin-2-yl]piperidin-4-yl}ethyl)carbamate]	1.39	0.89		
COC(=O)[C@H](NC(=O)OC(C)(C)C)C1CCN(c2nccc(-c3ccc4ccccc4c3)n2)CC1 [methyl (2R)-[(tert-butoxycarbonyl)amino]{1-[4-(2-naphthyl)pyrimidin-2-yl]piperidin-4-yl}acetate]		0.77		
COC(=O)[C@H](N)C1CCN(c2nccc(-c3ccc4ccccc4c3)n2)CC1 [methyl (2R)-amino{1-[4-(2-naphthyl)pyrimidin-2-yl]piperidin-4-yl}acetate]	1.68	1.05	3.200	8.86
COC(=O)[C@@H](NC(=O)OC(C)(C)C)C1CCN(c2nccc(-c3ccc4ccccc4c3)n2)CC1 [methyl (2S)-[(tert-butoxycarbonyl)amino]{1-[4-(2-naphthyl)pyrimidin-2-yl]piperidin-4-yl}acetate]		0.7		
COC(=O)[C@@H](N)C1CCN(c2nccc(-c3ccc4ccccc4c3)n2)CC1 [methyl (2S)-amino{1-[4-(2-naphthyl)pyrimidin-2-yl]piperidin-4-yl}acetate]		0.57	1.590	
